Entries after “also recorded” stand apart in the source; their conditions may differ.
Tests used:
[1] = tested on: clot formation in human whole blood; assay: Computerized thromboelastography (TEG): mediator-induced clot formation under shear in whole blood; assay type: cell-based; settings: for enhancement of clot strength by platelets: TF-accelerated clot formation
Description: Clot formation was monitored at 37° C. in an oscillating plastic cylindrical cuvette (“cup”) and a coaxially suspended stationary piston (“pin”) with a 1 mm clearance between the surfaces, using a computerized Thrombelastograph (CTEG Model 3000, Haemoscope, Skokie, IL). The cup oscillates 4°45′ ( 1/12 radian) in either direction every 4.5 seconds, with a 1 second mid-cycle stationary period; resulting in a frequency of 0.1 Hz and a maximal shear rate of 0.1 per second. The pin is suspended by a torsion wire that acts as a torque transducer. […] The torque experienced by the pin (relative to the cup's oscillation) is plotted as a function of time. The amplitude on the TEG tracing is a measure of the rigidity of the clot; the peak strength or the shear elastic modulus attained by the clot, G, is a function of clot rigidity and can be calculated from the maximal amplitude (MA) of the TEG tracing.
The following parameters were measured from the TEG tracing (FIG. 5):
R, the reaction time (gelation time) represents the latent period before the establishment of a 3-dimensional fibrin gel network (with measurable rigidity of amplitude=2 mm).
Maximum Amplitude (MA, in mm) is the peak rigidity manifested by the clot.
Shear elastic modulus or clot strength (G, dynes/cm^2) is defined by: G=(5000* MA)/(96-MA) for computerized TEG. […]
To assess the effect of the TF modification on peak clot strength (G) was measured with and without the addition of TF in paired samples of WB and PRP. To document the contribution of activated platelets to the elastic modulus of fibrin clots, the effect of platelet number was measured by serially diluting PRP with PPP. The platelet count of each dilution was measured before performing TEG. […] The Thrombelastograph maximum amplitude (MA) for platelets MA (PLT)) was calculated by subtracting the MA from a platelet-poor plasma (PPP) sample MA (PPP) determined in one thromboelastography well from that of whole blood MA (WB) run simultaneously in the second thromboelastography well.

[2] = tested on: carotid artery thrombus formation; assay: Electrically induced carotid artery thrombosis, carotid blood flow (rabbit model of arterial thrombosis); assay type: in vivo; settings: i.v. infusion from 1 hour before and during 90 min after electrical stimulation, aspirin 1 mg/kg/hr, Compound (A) 0.03 mg/kg/hr, Fragmin 60 U/kg/hr
Description: (§1) Rabbits were anesthetized with ketamine (50 mg/kg i.m.) and xylazine (10 mg/kg i.m.) and then surgically prepared with arterial and venous catheters. An electromagnetic flow probe was placed on a segment of an isolated carotid artery to monitor blood flow. Thrombus formation was induced by electrical stimulation of the carotid artery for 3 min at 4 mA using an external stainless-steel bipolar electrode. Carotid blood flow was measured continuously over a 90-min period to monitor thrombus occlusion. Test agents were infused intravenously 1 hour prior to the electrical stimulation of the carotid artery and continuously during the 90-min period.

preformed clot = assay: Thrombolysis of a preformed carotid clot in rats (reperfusion, patency, reocclusion); assay type: in vivo; settings: for effectiveness in preventing thrombosis in this rat model: 0.3 mg/kg i.v., free acids
Description: as §1
Experiments were conducted in rats anesthetized with ketamine (110 mg/kg i.m.) and xylazine (10 mg/kg i.m.). The protocol is similar to the rabbit protocol as described above in Example 1 except that the free acid of a compound of the formula (B): [drawing 11]
or the free acid of sibrafiban and/or TPA were given 5 min after a preformed clot was formed. The measured parameters were time to reperfusion, duration of patency and incidence of reocclusion. The doses of TPA, sibrafiban and compound B used were 1, 0.3 and 0.3 mg/kg i.v., respectively.

[3] = rat, TPA 1, sibrafiban 0.3, compound B 0.3 mg/kg i.v., given 5 min after preformed clot, free acids used

TFPI: Tissue factor pathway inhibitor was tested, and the “IC50, clot formation (clot retraction) induced by LPS” value ([1]; LPS 6.25 μg, human whole blood, mean ± SEM) was 0.09 ± 0.01 µg/mL.

With `CS(=O)(=O)O.Cc1noc(C)c1S(=O)(=O)N[C@@H](CNC(=O)C[C@H]1CC(c2ccc(C(=N)N)cc2)=NO1)C(=O)O` [Compound (A)] the “effect on occlusion of the artery / carotid blood flow” value [2] was “did not prevent the occlusion of the artery; also recorded: not effective”.

In the case of tissue plasminogen activator [TPA], the Incidence of reocclusion (preformed clot; rat, TPA 1, sibrafiban 0.3, compound B 0.3 mg/kg i.v., given 5 min after preformed clot, animals reoccluded/total) is reported as 15/17, the Duration of patency (preformed clot; [3]) is reported as 29 ± 2% and the Time to reperfusion (preformed clot; [3]) is reported as 32 ± 6 min.

With `CCOC(=O)COC1CCN(C(=O)[C@H](C)NC(=O)c2ccc(C(=N)NO)cc2)CC1` [sibrafiban, reference compound] the “effectiveness in preventing thrombosis in this rat model” value (preformed clot) was “equal effective”.

`CC(=O)O.CCCCOC(=O)N[C@@H](CNC(=O)C[C@H]1CC(c2ccc(C(=N)N)cc2)=NO1)C(=O)OC` (stereo in doubt) [Compound B, roxifiban] was tested, and the “effectiveness in preventing thrombosis in this rat model” value (preformed clot) was “equal effective”.

For `CC(=O)Oc1ccccc1C(=O)O` [Aspirin, aspirin, reference compound], the “effect on occlusion of the artery / carotid blood flow” value [2] was “did not prevent the occlusion of the artery”.

`CC(=O)O.CCCCOC(=O)N[C@@H](CNC(=O)C[C@H]1CC(c2ccc(C(=N)N)cc2)=NO1)C(=O)OC` [Compound B, roxifiban] was tested, and the “enhancement of clot strength by platelets” value [1] was “inhibited”.

B1: Abciximab: c7E3 Fab (Abciximab, Centocor), platelet GPIIb/IIIa antagonist (antibody, chains of the INN, looked up, V domains shown)
VH: EVQLQQSGTVLARPGASVKMSCEASGYTFTNYWMHWVKQRPGQGLEWIGAIYPGNSDTSYIQKFKGKAKLTAVTSTTSVYMELSSLTNEDSAVYYCTLYDGYYVFAYWGQGTLVTVSA
VL: EIVLTQSPVTLSVTPGDSVSLSCRASRDISNNLHWFQQTSHESPRLLIKYASQSMSGIPSRFSGSGSGTDFTLSINSVETEDFGMYFCQQTNSWPYTFGGGTKLEIK
modifications: Fab
notes: c7E3 Fab (Abciximab, Centocor), platelet GPIIb/IIIa antagonist
In the case of B1, the “enhancement of clot strength by platelets” value [1] is reported as “inhibited”.
